Common to all, as to assay type: cell-based
Series [1] has as its system CMV promoter activity in transformed (adenovirus) cells. Briefly: CMV promoter assay (gene transcription and translation, cytotoxic activity). As to conditions: read-out: IC50 (μM), CMV promoter assay. An excerpt: This example illustrates data regarding proliferative activity of various inventive compounds for inducting CMV promoter activity. The CMV promoter assay measures gene transcription and translation activity wherein any active compounds will nave cytotoxic activity to inhibit cellular protein synthesis machinery in transformed (adenovirus) cells.

Another series relates to human stromal cells. Put plainly: inhibition of proliferation of human stromal cells stimulated with PDGF. To be noted: FIG. 7; 50 ng/ml PDGF-BB, in words. Here is the method:
This assay is a model for restenosis and treatment of atherosclerosis and coronary artery disease. Stromal cells were starved in serum-free media for one day and then stimulated with 50 ng/ml PDGF-BB. The drags were added at the indicated concentrations one hour prior to PDGF stimulation. Tritiated thymidine was added for one day at the time of PDGF stimulation and the cells were harvested and counted by liquid scintillation counting 24 hrs later. Background counts (i.e., starved cells) were approximately 1% of control levels.
Another assay for measuring activity of the inventive compounds involves determining PDGF (platelet derived growth factor) proliferative response using human-derived stromal cells. Human stromal cells are plated (e.g., about 2000 cells per well) in defined media (e.g., 69% McCoy's, 12.5% fetal calf serum, 12.5% horse serum, 1% antibiotics, 1% glutamine, 1% vitamin supplement, 0.8% essential amino acids, 1% sodium pyruvate, 1% sodium bicarbonate, 0.4% non-essential amino acids and 0.36% hydrocortisone). Two to three days later, the stromal cells are starved in serum-free media. Twenty four hours later, the cells are treated with a stimulating agent, such as PDGF-AA, PDGF-BB or basic FGF (fibroblast growth factor) with or without IL-1α or TNF, and tritiated thymidine. Cell proliferation is determined by liquid scintillation counting.
This assay is a model for restenosis and treatment of atherosclerosis and coronary artery disease. Stromal cells were starved in serum-free media for one day and then stimulated with 50 ng/ml PDGF-BB. The drugs were added at the indicated concentrations one hour prior to PDGF stimulation. Tritiated thymidine was added for one day at the time of PDGF stimulation and the cells were harvested and counted by liquid scintillation counting 24 hrs later. Background counts (i.e., starved cells) were approximately 1% of control levels.

For series [2], the system named is TNF release from monocytes in whole blood. Briefly: ex vivo human TNF model, LPS-mediated TNF release in whole blood. As to conditions: FIG. 14. Here is the method:
This model adds LPS to whole blood (normal human volunteers) to trigger a dose-dependent synthesis and extracellular release of TNF according to Desch et al. (Lymphokine Res. 8:141, 1989). The ex vivo model examines whether LPS-mediated release of TNF from monocytes in whole blood can be block by an inventive compound.
An ex vivo human sepsis model is described in Desch et al., Lymphokine Res. 8:141, 1989 and in Ooi et al., J. Exp. Med. 174:649, 1991. Briefly, whole blood from humans is incubated with LPS (endotoxin). TNF released from cells (mostly from monocytes) is measured. The inventive compounds lower TNF levels as compared with untreated controls in this model.
This example illustrates a comparative experiment comparing CT1595, CT1529 and CT2519 in an ex vivo human TNF model described herein. This assay is a predictive model for treatment and prevention of septic shock and sepsis syndrome. This model adds LPS to whole blood (normal human volunteers) to trigger a dose-dependent synthesis and extracellular release of TNF according to Desch et al. (Lymphokine Res. 8:141, 1989). The ex vivo model examines whether LPS-mediated release of TNF from monocytes in whole blood can be block by an inventive compound.

Series [3] relates to transformed cells (Ras 3T3) and normal 3T3 cells. Put plainly: cytotoxicity in transformed and normal 3T3 cells. To be noted: FIG. 9; five compounds. Here is the method:
A similar experiment is shown in FIG. 9 for five inventive compounds (see Table 1 […] for chemical names) showing differential cytotoxicity for the same normal and transformed cells.
Each inventive compound is investigated for cytotoxicity to determine appropriate doses for biological activity assays and to prevent cytotoxic reactions in in vitro assays when characterizing activity. Cells (e.g., NIH-3T3, Ras transformed 3T3 cells, malignant melanoma LD2 cells, etc.) are added to microtiter plates and drug is added about two days after plating. Cell viability is determined using a fluorescent viability stain (e.g., 2',7'-bis-(2-carboroxyethyl)-5-(and -6)-carboxyfluorescein acetoxymethyl ester, BCECF excitation 488 nm and emission 525 nm) 24, 48 or 72 hours after addition of the drug.
This example illustrates a comparison of cytotoxicity determinations for CT1595 in transformed cells (Ras 3T3) and in normal 3T3 cells at drug doses of 1, 10 and 100 μM in in vitro cell culture conditions (FIG. 8). […] A similar experiment is shown in FIG. 9 for five inventive compounds (see Table 1 above for chemical names) showing differential cytotoxicity for the same normal and transformed cells.

The next series relates to mast cells. Briefly: mast cell degranulation, serotonin release assay. As to conditions: 100 μM. The text has this: A serotonin release assay is utilized to study the utility of the inventive compounds for treatment of asthma and allergy. This assay measures mast cell degranulation, which is an early phase reaction to allergen challenge. Mast cells grown in tissue culture are first loaded with ^3 H serotonin, which is incorporated into the granules in the cells. The mast cells are sensitized with antigen specific monoclonal IgE, and then triggered to degranulate with the specific antigen (dinitrophenol bound to BSA (DNP)). When the cells degranulate, ^3 H Serotonin is released into the medium, and can be measured directly. The ability of the inventive compounds to inhibit the degranulation response is determined by the decrease in ^3 H Serotonin released in the presence of drug and is represented as % INHIBITION. The IC50 of any given compound is determined by the ability of that compound to inhibit degranulation by 50%.
Specifically, the serotonin release assay seeds 2×10^5 cells in 0.5 ml medium in duplicate for spontaneous release, IgE+DNP, IgE+DNP+EtOH (vehicle control), and inventive compounds. One μCi [^3H ]-Serotonin/ml (i.e., 0.5 μCi/well) (NEN Research Products, cat. #NET-398 Hydroxytryptamine Binoxalate, 5-[1,2-^3 H(N)]-(Serotonin Binoxalate, [1,2-^3 H(N)]-)) and 1 μl/ml IgE is added. The cells are incubated for 18 hours at 37° C. in 5% CO2, washed twice with 0.5 ml Isotonic Buffer (25 mM disodium PIPES pH 7.1,100 mM NaCl, 5 mM KCl, 5 mM glucose, 0.4 mM MgCl2, 1 mM CaCl2, 0.1% BSA), and sterile filtered. 250 μl Isotonic Buffer is added per well and the plates are equilibrated in an incubator for about 10 min. Drug is added and cells are activated with 40 ng/ml DNP-BSA (1 mg/ml Diluted 1:200 in Isotonic Buffer) for 45 minutes using 2 μl/250 μl. Spontaneous release is determined in incubated cells with 250 μl Isotonic Buffer for 45 minutes and the reaction is stopped by removing supernatant and centrifuging at ~4000 rpm in microfuge for 15 seconds to remove any detached cells. Released radiolableled serotonin is counted. To determine amount of ^3 H-serotonin incorporated into the cells, (a) remove Isotonic Buffer and lyse cells by adding 250 μl 1% Triton-X100 in PBS, (b) add to 5 ml scintillation fluid, (c) wash 2× with Triton/PBS, and (d) add washes to scintillation tube. Percent serotonin release is calculated by dividing the amount of released serotonin by the sum of incorporated plus released serotonin and correcting for spontaneous released serotonin. Compound inhibition is calculated by dividing the percent serotonin release in the presence of a compound by the percent serotonin release in the absence of the compound.
This assay is described above and provides an in vitro model for an allergy and asthma therapeutic compound.

These results are taken from patent US5670506A, “Halogen, isothiocyanate or azide substituted xanthines” (Cell Therapeutics, Inc., priority 1993, dated 1997).

The structures appear in SMILES notation. “Also recorded” adds a separate entry of the source. Where only a bound is given, the exact number is not on record here.

Usually IC50 stands for the midpoint of a concentration-inhibition curve. In general, inhibition refers to the share of the control response that was lost under treatment.

Consider `CC(=O)OC(CBr)CCCCn1c(=O)c2ccccc2n(C)c1=O` (stereo not shown) [CT1205, 3-(5-acetoxy-6-bromohexyl)-1-methylbenzoyleneurea], for which the IC50 in series [1] is 200 µM.

In the case of `CC(=O)OC(CBr)CCCCCCn1c(=O)c2c(ncn2C)n(C)c1=O` (stereo not shown) [CT1514, 1-(7-acetoxy-8-bromooctyl)-3,7-dimethylxanthine], the “inhibition of human stromal cell proliferation” value in the series on human stromal cells is “strongly inhibit proliferation”. In addition, the IC50 in series [1] is > 500 µM.

As to `Cn1cnc2c1c(=O)n(CCCCC(O)CN=[N+]=[N-])c(=O)n2C` (stereo not shown) [CT1517, 1-(6-azido-5-hydroxyhexyl)-3,7-dimethylxanthine], the “inhibition of human stromal cell proliferation” value in the series on human stromal cells is on record as “strongly inhibit proliferation”. For the same compound, in series [1], the IC50 was > 500 µM.

Turning to `Cn1cnc2c1c(=O)n(CCCCCCCl)c(=O)n2C` [CT1525, 1-(6-chlorohexyl)-3,7-dimethylxanthine], the half-inhibitory concentration (IC50) in series [1] is > 500 µM.

As for `Cn1cnc2c1c(=O)n(CCCCCCOC(=O)CCl)c(=O)n2C` [CT1527, 1-(6-(chloroacetoxy)hexyl)-3,7-dimethylxanthine], in series [1], the half-maximal inhibitory concentration (IC50) was 200 µM.

As for `CC(CCCCn1c(=O)c2c(ncn2C)n(C)c1=O)OC(=O)CCl` (stereo not shown) [CT1529, 1-(5-(chloroacetoxy)hexyl)-3,7-dimethylxanthine], the IC50 in series [1] amounted to 100 µM. The “block of LPS-mediated TNF release” value in series [2] is recorded as “could block TNF release in a dose-dependent fashion; also recorded: most effective agent at lower doses”. Besides, in series [3], the “cytotoxic activity, normal and transformed 3T3 cells” value was “significant cytotoxic activity”.

For `CC(F)CCCCn1c(=O)c2c(ncn2C)n(C)c1=O` (stereo not shown) [CT1577, 1-(5-fluorohexyl)-3,7-dimethylxanthine], the “inhibition of human stromal cell proliferation” value in the series on human stromal cells is on record as “strongly inhibit proliferation”. Further, in series [1], the IC50 is > 500 µM. Besides, testing at 100 µM with mast cells gave an inhibition of 46%.

For the compound `CC(=O)OC(CBr)CCCCCCCCn1c(=O)c2c(ncn2C)n(C)c1=O` (stereo not shown) [CT1583, 1-(9-acetoxy-10-bromodecyl)-3,7-dimethylxanthine], in the series on human stromal cells, the “inhibition of human stromal cell proliferation” value is “strongly inhibit proliferation”. For the same compound, the IC50 in series [1] is > 500 µM.

In the case of `Cn1cnc2c1c(=O)n(CCCCCCBr)c(=O)n2C` [CT1589, 1-(6-bromohexyl)-3,7-dimethylxanthine], the “inhibition of human stromal cell proliferation” value with human stromal cells is on record as “strongly inhibit proliferation”. Also, the IC50 in series [1] amounted to 125 µM. Testing at 100 µM in the series with mast cells gave an inhibition of 53%.

Turning to `CC(=O)OC(CBr)CCCCCCCn1c(=O)c(C)cn(C)c1=O` (stereo not shown) [CT1908, 3-(8-acetoxy-9-bromononyl)-1-methylthymine], the concentration for half-maximal inhibition (IC50) in series [1] stood at 50 µM.
